Data set [1] concerns Mus musculus. Nature of the data set: In vivo inhibition of PHD2 in Balb/c mouse assessed as EPO levels in serum at 40 mg/kg, po after 6 hrs by ELISA. Format: functional.
The nature of data set [2]: Effective half life in Sprague-Dawley rat at 1 mg/kg, iv. Format: ADME, organism-based. Particulars: in vivo, read-out: t1/2eff (converted).
Data set [3] can be described thus: Protein binding in Sprague-Dawley rat serum at 1 ug/ml after 4 hrs by equilibrium dialysis method. It is filed as ADME, cell-free. Conditions: read-out: PB (converted).
Data set [4] can be described thus: Drug metabolism in Sprague-Dawley rat hepatocytes assessed as oxidative metabolism at 1 uM after 1 hr by LC-MS/MS method. Conditions: read-out: Drug metabolism. It is filed as ADME, cell-based, Hepatocyte.
Data set [5] in a line: Protein binding in human serum at 1 ug/ml after 4 hrs by equilibrium dialysis method. Conditions: read-out: PB (converted). Format: ADME, cell-free.
Data set [6] can be described thus: Half life in patient administered as qd. It is filed as ADME, organism-based. Particulars: human, in vivo.
Data set [7] deals with Mus musculus. Nature of the data set: In vivo inhibition of PHD2 in Balb/c mouse assessed as EPO levels in serum at 100 mg/kg, po after 6 hrs by ELISA. It is filed as functional.
The subject of data set [8] is Rattus norvegicus. Nature of the data set: In vivo inhibition of PHD2 in Sprague-Dawley rat assessed as increase in EPO levels in serum at 100 mg/kg, po after 6 hrs by ELISA. Format: functional, organism-based.
The nature of data set [9]: Tmax in beagle dog at 5 mg/kg, po by LC-MS/MS method. Particulars: in vivo. It is filed as ADME, organism-based, Canis lupus familiaris.
Data set [10] can be described thus: Total clearance in beagle dog at 1 mg/kg, iv by LC-MS/MS method. Format: ADME, organism-based, Canis lupus familiaris. Particulars: in vivo.
Data set [11] concerns Rattus norvegicus. Nature of the data set: In vivo inhibition of PHD2 in Sprague-Dawley rat assessed as EPO levels in serum at 40 mg/kg, po after 8 hrs by ELISA. It is filed as functional.
A short description of data set [12]: Volume of distribution at steady state in beagle dog at 1 mg/kg, iv by LC-MS/MS method. Format: ADME, organism-based, Canis lupus familiaris. Particulars: in vivo, read-out: Vdss.
Data set [13] can be described thus: Half life in beagle dog at 5 mg/kg, po by LC-MS/MS method. It is filed as ADME, organism-based, Canis lupus familiaris. Conditions: in vivo.
Data set [14] can be described thus: Total clearance in Sprague-Dawley rat at 1 mg/kg, iv by LC-MS/MS method. It is filed as ADME, organism-based. Particulars: in vivo.
A short description of data set [15]: Half life in Sprague-Dawley rat at 10 mg/kg, po by LC-MS/MS method. It is filed as ADME, organism-based. Conditions: in vivo.
Data set [16] is described as follows: Half life in beagle dog at 1 mg/kg, iv by LC-MS/MS method. Format: ADME, organism-based, Canis lupus familiaris. Conditions: in vivo.
Data set [17] deals with Egl nine homolog 1 (Rattus norvegicus, UniProt P59722). Nature of the data set: Inhibition of rat PHD2 using FITC-HIF1-alpha as substrate after 10 mins in presence of 2-oxoglutarate by fluorescence polarization assay.
Chain of Egl nine homolog 1 (P59722 whole entry): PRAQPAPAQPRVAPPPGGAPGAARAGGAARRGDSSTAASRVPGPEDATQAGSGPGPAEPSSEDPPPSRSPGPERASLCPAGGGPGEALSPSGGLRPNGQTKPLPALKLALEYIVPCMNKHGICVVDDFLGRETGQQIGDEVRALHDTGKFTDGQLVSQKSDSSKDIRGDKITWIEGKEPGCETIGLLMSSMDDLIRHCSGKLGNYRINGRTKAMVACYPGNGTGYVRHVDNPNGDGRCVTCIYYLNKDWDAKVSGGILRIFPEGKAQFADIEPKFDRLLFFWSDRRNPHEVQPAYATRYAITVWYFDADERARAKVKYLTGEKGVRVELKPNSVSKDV
A short description of data set [18]: Half life in Sprague-Dawley rat at 1 mg/kg, iv by LC-MS/MS method. Format: ADME, organism-based. Conditions: in vivo.
The nature of data set [19]: Tmax in Sprague-Dawley rat at 10 mg/kg, po by LC-MS/MS method. Particulars: in vivo. Format: ADME, organism-based.
Data set [20] in a line: Cmax in beagle dog at 5 mg/kg, po by LC-MS/MS method. Particulars: in vivo. It is filed as ADME, organism-based, Canis lupus familiaris. More on the design: dose 5 mg/kg, route oral.
A short description of data set [21]: Oral bioavailability in beagle dog at 5 mg/kg by LC-MS/MS method. Format: ADME, organism-based, Canis lupus familiaris. Conditions: in vivo.
Data set [22] can be described thus: Oral bioavailability in Sprague-Dawley rat at 10 mg/kg by LC-MS/MS method. Format: ADME, organism-based. Particulars: in vivo.
Data set [23] can be described thus: Cmax in Sprague-Dawley rat at 10 mg/kg, po by LC-MS/MS method. Particulars: in vivo. Format: ADME, organism-based. On the set-up: dose 10 mg/kg, route oral.
A short description of data set [24]: Volume of distribution at steady state in Sprague-Dawley rat at 1 mg/kg, iv by LC-MS/MS method. It is filed as ADME, organism-based. Conditions: in vivo, read-out: Vdss.
Data set [25] is described as follows: Protein binding in beagle dog plasma at 0.3 ug/ml after 8 hrs by equilibrium dialysis method. It is filed as ADME, cell-free, Canis lupus familiaris. Conditions: read-out: PPB (converted).
Data set [26] in a line: Drug metabolism in beagle dog hepatocytes assessed as oxidative metabolism at 1 uM after 4 hrs by LC-MS/MS method. Format: ADME, cell-based, Canis lupus familiaris, Hepatocyte. Particulars: read-out: Drug metabolism.
Data set [27] can be described thus: Protein binding in Sprague-Dawley rat plasma at 0.3 ug/ml after 8 hrs by equilibrium dialysis method. Format: ADME, cell-free. Conditions: read-out: PPB (converted).
Data set [28] in a line: Drug metabolism in Sprague-Dawley rat hepatocytes assessed as oxidative metabolism at 1 uM after 4 hrs by LC-MS/MS method. It is filed as ADME, cell-based, Hepatocyte. Particulars: read-out: Drug metabolism.
Data set [29] is described as follows: Drug metabolism in human hepatocytes assessed as oxidative metabolism at 1 uM after 4 hrs by LC-MS/MS method. Format: ADME, cell-based, Hepatocyte. Particulars: read-out: Drug metabolism.
Data set [30] is described as follows: Protein binding in human plasma at 0.3 ug/ml after 8 hrs by equilibrium dialysis method. It is filed as ADME, cell-free. Conditions: read-out: PPB (converted).
The test system of data set [31] is Homo sapiens. Nature of the data set: Terminal half life in patient with hepatic impairment at 100 mg, po. Format: ADME, organism-based. Particulars: in vivo.

SMILES strings stand for the structures. Active and inactive are the calls of the source. No cut-off for these calls is given here.

On to `Cc1ccc(Oc2ccc(CN3CCC(O)=C(C(=O)NCC(=O)O)C3=O)cc2)cc1`, for which the “serum EPO level” value in data set [1] came out at 4441 pg/mL. Besides, the half-life in data set [2] was 0.52 h.
Turning to `O=C(O)CNC(=O)C1=C(O)CCN(Cc2ccc(C(F)(F)F)cc2)C1=O`, in [2], the half-life is 4.9 h.
Regarding `O=C([O-])CNC(=O)C1=C(O)CCN(Cc2ccc(OCCC3CC3)cc2)C1=O.[Na+]`, the “serum EPO level” value in [1] was determined as 8163 pg/mL. In data set [2], the half-life was 0.46 h.
With `CC1CN(Cc2ccc(-c3ccccc3)cc2)C(=O)C(C(=O)NCC(=O)O)=C1O` (centres undefined), the fraction unbound at 4 h, 1 ug/ml in [3] and in [5] was below 0.005 throughout. In [4], the metabolised at 1 h, 1 µM was 6%.
As for `O=C(O)CNC(=O)C1=C(O)CC2(CCC2)N(Cc2ccc(-c3ccccc3)cc2)C1=O`, the fraction unbound at 4 h, 1 ug/ml in data set [3] was below 0.006; in [5] it was 0.005. In addition, the metabolised at 1 h, 1 µM in data set [4] was 13%.
With `O=C(O)CNC(=O)C1=C(O)CCN(Cc2ccc(OC(F)(F)F)cc2)C1=O`, the half-life in data set [2] is 2.8 h.
As for `O=C(O)CNC(=O)C1=C(O)CCN(Cc2ccc(-c3ccccc3)cc2)C1=O`, the figures for the fraction unbound at 4 h, 1 ug/ml in data set [3] and in data set [5] were 0.007 and 0.011, respectively. Besides, the metabolised at 1 h, 1 µM in data set [4] came out at 34.4%.
`O=C(O)CNC(=O)c1ncc(-c2cccc(Cl)c2)cc1O` [VADADUSTAT] had a half-life in data set [6] of 4.5 h.
With `O=C(O)CNC(=O)C1C(=O)N(C2CCCCC2)C(=O)N(C2CCCCC2)C1=O` [DAPRODUSTAT], the half-life in data set [6] was 2.7 h.
On to `O=C(O)CNC(=O)C1=C(O)CC2(CCCCC2)N(Cc2ccc(-c3ccccc3)cc2)C1=O`, for which the Activity in [7] was 2323 pg/mL. Moreover, the fraction unbound at 4 h, 1 ug/ml in data set [3] and in data set [5] was below 0.006 in each case. Also, the metabolised at 1 h, 1 µM in [4] turned out to be 31.3%. The outcome in data set [8] was inactive.
Turning to `O=C([O-])CNC(=O)C1=C(O)CCN(Cc2ccc(OC3CC3)cc2)C1=O.[Na+]`, the half-life in data set [2] was 0.55 h.
As to `O=C(O)CNC(=O)C1=C(O)CCN(Cc2ccc(Oc3ccc(Cl)cc3)nc2)C1=O`, the Tmax in data set [9] was determined as 0.75 h; in [19], 0.25 h. Besides, the clearance in data set [10] is 3.28 mL/min/kg; in data set [14], 7.28 mL/min/kg. Also, the Activity in data set [11] came to 3003 pg/mL. Besides, the Vd in [12] is 0.231 L/kg; in data set [24], 0.904 L/kg. In addition, the half-life is 3.5 h in data set [13]; 2.3 h in [15]; 4.7 h in [16]; 3.1 h in data set [18]; 1.5 h in data set [2]. Moreover, in data set [17], the IC50 came to 18 nM. For the same compound, the results for the Cmax in data set [20] and in data set [23] were 6980 ng/mL and 10700 ng/mL, respectively. Further, the bioavailability stood at 52.8% in data set [21] and 82.8% in data set [22].
As to `O=C([O-])CNC(=O)C1=C(O)CCN(Cc2ccc(OCCC3CC3)nc2)C1=O.[Na+]`, in data set [1], the “serum EPO level” value is 7530 pg/mL. Moreover, in [2], the half-life is 0.42 h.
As to `Cc1ccc(Oc2ccc(CN3CCC(O)=C(C(=O)NCC(=O)O)C3=O)cn2)cc1`, in [1], the “serum EPO level” value was 3497 pg/mL. In addition, the half-life in data set [2] was 0.72 h.
On to `O=C([O-])CNC(=O)C1=C(O)CCN(Cc2ccc(OCCC3CC3)cn2)C1=O.[Na+]`, for which the “serum EPO level” value in [1] is 471 pg/mL.
As for `O=C(O)CNC(=O)C1=C(O)CCN(Cc2ccc(OCC3CC3)cc2)C1=O`, the “serum EPO level” value in [1] was 6258 pg/mL. In data set [2], the half-life is 1.4 h.
As to `Cc1ccc(Oc2ccc(CN3CCC(O)=C(C(=O)NCC(=O)[O-])C3=O)nc2)cc1.[Na+]`, the “serum EPO level” value in [1] amounted to 1488 pg/mL.
On to `O=C([O-])CNC(=O)C1=C(O)CCN(Cc2ccc(Oc3ccc(Cl)cc3)nc2)C1=O.[Na+]`, for which the “serum EPO level” value in [1] stood at 8371 pg/mL. In addition, the fraction unbound at 8 h, 0.3 ug/ml in data set [25] was 0.011; in data set [27], 0.011; in [30] it was 0.009. Moreover, the metabolised at 4 h, 1 µM in data set [26] is -0.3%; in data set [28], 0.9%; in [29] it was 5.7%.
`CC1CC(O)=C(C(=O)NCC(=O)O)C(=O)N1Cc1ccc(-c2ccccc2)cc1` (centres undefined): the fraction unbound at 4 h, 1 ug/ml in data set [3] and in data set [5] was below 0.006 each time. Moreover, the metabolised at 1 h, 1 µM in [4] came to 3.8%.
On to `Cc1nc(C(=O)NCC(=O)O)c(O)c2ccc(Oc3ccccc3)cc12` [ROXADUSTAT], for which the “beta t1/2” value in data set [31] was determined as 13 h.

The values above are taken from ChEMBL document CHEMBL4118138, “Discovery of novel 2-[(4-hydroxy-6-oxo-2,3-dihydro-1H-pyridine-5-carbonyl)amino]acetic acid derivatives as HIF prolyl hydroxylase inhibitors for treatment of renal anemia” (Bioorg Med Chem Lett, 2018).
